The experiment concerns the target T1, MYLK (MLCK) (Homo sapiens, UniProt Q15746).
T1 construct: purchased Thermo Fisher Scientific (Life Technologies) SelectScreen
Put plainly: SelectScreen LanthaScreen. Format: binding. As to conditions: read-out: % displacement. The method in brief: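 SelectScreen broad panel; activity (Z'LYTE, Adapta) plus binding formats. ATP: Km app for CSF1R Z'LYTE; 10 for CAMK1 Adapta. Readout = % per kinase.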
(In general: In TR-FRET formats the signal depends on donor and acceptor labels being close together.)

T1 sequence (Q15746 whole entry): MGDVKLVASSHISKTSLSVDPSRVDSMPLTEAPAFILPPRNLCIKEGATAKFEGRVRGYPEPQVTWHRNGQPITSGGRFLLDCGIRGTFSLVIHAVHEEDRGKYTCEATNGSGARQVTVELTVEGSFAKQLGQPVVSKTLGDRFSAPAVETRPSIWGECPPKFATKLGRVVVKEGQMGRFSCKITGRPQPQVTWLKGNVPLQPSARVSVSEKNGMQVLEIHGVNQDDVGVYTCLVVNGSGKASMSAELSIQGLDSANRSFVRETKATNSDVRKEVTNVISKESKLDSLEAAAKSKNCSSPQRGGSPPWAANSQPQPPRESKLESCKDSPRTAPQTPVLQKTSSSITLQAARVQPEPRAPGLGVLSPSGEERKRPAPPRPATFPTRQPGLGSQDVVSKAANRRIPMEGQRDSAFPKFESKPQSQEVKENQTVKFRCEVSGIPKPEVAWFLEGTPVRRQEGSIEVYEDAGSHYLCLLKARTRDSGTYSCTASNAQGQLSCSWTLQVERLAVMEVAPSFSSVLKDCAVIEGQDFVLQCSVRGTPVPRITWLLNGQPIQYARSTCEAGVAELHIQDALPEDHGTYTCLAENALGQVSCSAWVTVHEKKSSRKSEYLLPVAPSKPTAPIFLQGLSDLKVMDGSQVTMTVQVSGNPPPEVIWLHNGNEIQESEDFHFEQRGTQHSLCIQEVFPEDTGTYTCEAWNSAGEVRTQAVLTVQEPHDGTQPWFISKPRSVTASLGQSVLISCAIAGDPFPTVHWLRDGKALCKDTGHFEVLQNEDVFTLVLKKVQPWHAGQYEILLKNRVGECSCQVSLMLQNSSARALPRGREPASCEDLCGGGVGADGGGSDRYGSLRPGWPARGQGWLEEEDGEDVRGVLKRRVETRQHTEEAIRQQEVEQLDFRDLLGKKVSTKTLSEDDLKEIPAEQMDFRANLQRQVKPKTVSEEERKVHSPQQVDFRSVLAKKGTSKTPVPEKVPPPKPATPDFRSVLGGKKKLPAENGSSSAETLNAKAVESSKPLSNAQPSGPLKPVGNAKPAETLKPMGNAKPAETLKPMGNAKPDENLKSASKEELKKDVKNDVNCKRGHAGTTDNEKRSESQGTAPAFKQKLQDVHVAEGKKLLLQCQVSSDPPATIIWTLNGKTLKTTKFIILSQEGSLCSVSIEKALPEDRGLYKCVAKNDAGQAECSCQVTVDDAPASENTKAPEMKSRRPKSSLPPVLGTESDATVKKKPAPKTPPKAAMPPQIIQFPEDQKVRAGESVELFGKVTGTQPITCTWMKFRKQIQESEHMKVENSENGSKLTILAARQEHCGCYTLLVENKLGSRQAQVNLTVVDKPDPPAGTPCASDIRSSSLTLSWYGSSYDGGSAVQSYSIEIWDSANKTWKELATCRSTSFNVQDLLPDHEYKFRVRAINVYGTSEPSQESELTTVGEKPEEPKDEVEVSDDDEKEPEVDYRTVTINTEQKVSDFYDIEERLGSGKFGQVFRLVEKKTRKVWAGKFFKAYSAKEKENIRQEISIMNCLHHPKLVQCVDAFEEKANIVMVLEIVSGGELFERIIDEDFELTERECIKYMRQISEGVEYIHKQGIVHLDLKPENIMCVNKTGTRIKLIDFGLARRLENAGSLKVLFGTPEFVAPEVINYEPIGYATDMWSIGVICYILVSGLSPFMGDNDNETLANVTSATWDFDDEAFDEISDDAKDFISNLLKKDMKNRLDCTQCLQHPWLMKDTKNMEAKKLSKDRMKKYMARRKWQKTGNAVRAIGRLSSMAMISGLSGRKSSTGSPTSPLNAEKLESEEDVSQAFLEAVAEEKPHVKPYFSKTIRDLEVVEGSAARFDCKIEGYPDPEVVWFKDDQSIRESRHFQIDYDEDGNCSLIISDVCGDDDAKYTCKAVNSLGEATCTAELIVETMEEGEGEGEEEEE

`CN(C(=O)CN1CCOCC1)c1ccc2sc3c(-c4cccc5c(=O)cc(N6CC7CCC(C6)O7)oc45)cccc3c2c1` [NU5455]: the inhibition at 1 µM turned out to be 0.2%.

For the origin of these results see publication PMC6934184, “Selective DNA-PKcs inhibition extends the therapeutic index of localized radiotherapy and chemotherapy” (The Journal of Clinical Investigation, 2019).
